We go through eight compounds from patent publication US11958842B2, “Substituted phenazines and methods of treating cancer and bacterial diseases” (Adjutec Pharma AS, priority 2016, dated 2024).

Where two headings read alike, the source gives them in different places. Marks after values point to notes of the source that are not given here.

A short description of data set [1]: Parallel artificial membrane permeability assay (PAMPA). Conditions: for LogPeff: PAMPA, 50 μM in PBS, room temperature, five hours; for Permeability: PAMPA class by ranges of Bennion et al. Here is the method:
The Corning Gentest™ pre-Coated parallel artificial membrane permeability assay PAMPA Plate System was from Cording Discovery Labware (Bedford, USA). The compounds were tested in room temperature at 50 μM using PBS as buffer. A total of 300 μl of the compound solution was added to each well of the donor plate, and 200 μl of PBS was added to the receiver filter plate. After incubation for five hours, 50 μl of the donor or acceptor well were injected into a reversed phase HPLC column (Kromasil 100-5 C18 150-4.6 mm, Akzo Nobel, Sweden) connected to a Merck-Hitachi LaChrome HPLC-system (VWR, WestChester, USA) with a L-7455 diode array detector. Mobile phase A was 0.05% aqueous TFA, and mobile phase B was acetonitrile. The flow rate was 1.6 ml/min and compounds eluted between 1 and 4.5 minutes was eluted during a 6.5 min gradient from 90:10% mobile phase A:B to 0:100% mobile phase A:B. The ratio of the compound concentrations in the donor and acceptor compartment was calculated after integration of the peaks at 285 nm. Peff was calculated as described in [Bennion B J, Be N A, McNerney M W, Lao V, Carlson E M, Valdez C A, et al. Predicting a Drug's Membrane Permeability: A Computational Model Validated With in Vitro Permeability Assay Data. The journal of physical chemistry B. 2017; 121(20):5228-37.]. Membrane permeability were classified by the range defined by Bennion et al., allowing for us to divide the compounds into four groups, compounds with high permeability (LogPeff>−5.33), intermediate permeability (LogPeff>−5.66 and <−5.33), low permeability (LogPeff>−6.14 and <−5.66) impermeable (LogPeff<−6.14).
A general note: The PAMPA barrier holds no transporters, so it reflects passive diffusion.

The test system of another data set is Molm13 cells. The data set can be described thus: Anti-AML activity, WST-1 viability (Example 72). Type of data set: cell-based. The settings on record: Homo sapiens, Molm 13 cells, WST-1. As for the experimental part:
Dry powder of analogs were dissolved in DMSO. IPC-18 rat AML cells (Lacaze, N. et al. Leuk. Res. 1983, 7, 145.) were cultured in DMEM medium (Sigma-Aldrich, St. Louis, Mo., USA) supplemented with 10% horse serum (Invitrogen, Carlsbad, Calif., USA), and antibiotics (50 U/mL of penicillin and 0.05 mg/mL streptomycin). Molm13 (Matsuo, Y. et al. Leukemia 1997, 11, 1469.) cells were cultured in RPMI supplemented with antibiotics (50 U/mL of penicillin and 0.05 mg/mL streptomycin) and 10% fetal bovine serum (FBS, Invitrogen, Carlsbad, Calif.) and kept in exponential growth before the experiments. Dilution series of iodinin analogs were added to medium and cell suspension added to reach a final cell concentration of 150 000 cells/ml in 0.1 mL in a 96 well tissue culture plate. […] The cells were incubated with the iodinin analogs for 22 h before WST-1 was added according to the manufacturers protocol, and the cells incubated further in 2 h. Mitochondrial conversion of WST-1 to its colored metabolite was measured by a plate reader at 450 nm, with 620 nm as the reference wavelength. The cells were next fixed by adding 4% buffered formaldehyde (PBS, pH 7.4, supplemented with 0.01 mg/mL Hoechst 33342 for nuclear visualization) to the cell suspension at 1:1 (v/v) ratio (final concentration of formaldehyde:[…]). The cells' nuclear and surface morphology were examined microscopically and results compared with the WST-1 viability assay. The results given in Table I are based on WST-1 data.
Background: Formazan colour is commonly taken as a measure of viable cells.

Data set [2] relates to normal rat kidney epithelial (NRK) cells. In words: Cytotoxicity, WST-1 and nuclear morphology (Example 73). It counts as cell-based. Here is the method: (§1) All cell culturing media and serum were from Sigma-Aldrich (St. Louis, Mo., USA). Product Nos. are given in parentheses. The human acute myeloid leukemia cell line MOLM-13 was cultured in RPMI medium (R5886) enriched with […] (F7524) and 0.2 mM L-glutamine (G7513). The normal rat kidney epithelial (NRK) and the rat cardiomyoblast (H9c2) cells were cultured in DMEM medium (D6429) enriched with 10% fetal bovine serum (F7524). All cell lines were additionally supplemented with 100 IU/mL penicillin and […] (P0781). The cells were cultured in a humidified atmosphere either under 2% or 20% O2 at 37° C.
(§2) All analogues were dissolved in DMSO (D5879, Sigma-Aldrich) at concentrations between 2.5 and 20 mM before testing. For cytotoxic testing, the MOLM-13 cells were seeded as 20,000 cells/well, while NRK and H9c2 cells were seeded as 5,000 cells/well in 96-well Microplates (#167008, Thermo Scientific™ Nunc™ MicroWell™) with 100 μL medium/well. The cells were exposed to various concentrations of iodinin or its analogues for 24 hrs before the cell proliferation reagent WST-1 was used to assess the viability, in accordance with the manufacturer's instructions (11644807001, Roche Diagnostics, Sigma-Aldrich). The cells were next fixed in 2% buffered formaldehyde (pH 7.4) with the DNA-specific dye Hoechst 33342 (Polysciences Inc.) and assessed for cell death by UV-microscopy based on nuclear morphology. The highest concentration of analogue corresponded to 1% of DMSO, which alone gave less than 7% cell death as judged by nuclear morphology.
(§3) EC50 values were determined by analyses of WST-1 signal results as well as microscopic evaluation of cell death by four-parameter regression analyses using the SigmaPlot software (Systat Software inc. San Jose, Calif.):
(§4) [formula] where Y is the response (WST-1 signal or percent apoptosis), min and max are minimum and maximum response, X is concentration of analogue, EC50 equals the point of inflection, i.e. the point that gives half of maximum response, and h is the Hill's slope of the curve. The two methods gave consistent response curves for each analogue. In the case of Tirapazamine, where its colour interfered with the WST-1 signal, only microscopic evaluation of Hoechst stained cells was used in order to calculate its EC50 values.

Data set [3] concerns human acute myeloid leukemia cell line MOLM-13. The description is as above. It counts as cell-based. As for the experimental part: as §1, §2, §3, §4
In data set [4] the test system is rat cardiomyoblast (H9c2) cells. Described as above. It counts as cell-based. Conditions: read-out: EC50 (μM) H9c2 19% O2. As for the experimental part:
as §1, §2, §3, §4

For another data set, the system named is hepG2. The data set can be described thus: Cytotoxicity (Example 73, Table 2). It counts as cell-based. The settings on record: Homo sapiens, read-out: EC50 (μM) hepG2.
Setting [5] is: 2% O2, 24 h of incubation, read-out: Molm 13 IC50 2% O2.
[6] abbreviates: 20% O2, 24 h of incubation, read-out: Molm 13 IC50 20% O2.
The mark [7] stands for this setting: Rattus norvegicus, 2% O2, 24 hours of incubation, read-out: EC50 (μM) NRK 2% O2.
Setting [8] is: Rattus norvegicus, 19% O2, 24 hours of incubation, read-out: EC50 (μM) NRK 19% O2.
The mark [9] stands for this setting: Homo sapiens, MOLM-13, 2% O2, 24 hours of incubation, read-out: EC50 (μM) MOLM-13 2% O2.
Where [10] appears, read: Homo sapiens, MOLM-13, 19% O2, 24 hours of incubation, read-out: EC50 (μM) MOLM-13 19% O2.
Where [11] appears, read: Rattus norvegicus, H9c2, 19% O2, 24 hours of incubation.
[12] abbreviates: Rattus norvegicus, 24 h, read-out: EC50 (μM) NRK 2% O2, NRK, 2% O2, 24 hours of incubation.
The mark [13] stands for this setting: Rattus norvegicus, 24 h, read-out: EC50 (μM) NRK 19% O2, NRK, 19% O2, 24 hours of incubation.
Where [14] appears, read: MOLM-13, 2% O2, 24 hours of incubation, read-out: EC50 (μM) MOLM-13 2% O2.
The mark [15] stands for this setting: MOLM-13, 19% O2, 24 hours of incubation, read-out: EC50 (μM) MOLM-13 19% O2.
The mark [16] stands for this setting: H9c2, 19% O2, 24 hours of incubation.
[17] abbreviates: read-out: EC50 (μM) NRK 2% O2, 2% O2, 24 hours of incubation.
[18] abbreviates: read-out: EC50 (μM) NRK 19% O2, 19% O2, 24 hours of incubation.

The term IC50 denotes the point on the concentration scale where inhibition reaches its midpoint. The term EC50 denotes the concentration that produces a half-maximal response. Compound `CCOC(=O)COc1cccc2c1[n+]([O-])c1cccc(O)c1[n+]2[O-]` [Example 5c, 1-(2-(ethoxy)-2-oxoethoxy)-6-hydroxyphenazine 5,10-dioxide] returned a LogPeff in data set [1] of −4.70. The figures for the half-maximal inhibitory concentration (IC50) with Molm13 cells (setting [5]) and in the data set with Molm13 cells (setting [6]) were 0.65 µM and 0.85 µM, respectively. Besides, the EC50 is 18 ± 1.5 µM in data set [2] (setting [7]); 11 ± 1.6 µM in data set [2] (setting [8]); 0.49 ± 0.12 µM in data set [3] (setting [9]); 0.57 ± 0.06 µM in data set [3] (setting [10]); 15 ± 0.9 µM in data set [4] (setting [11]).

With `CCOC(=O)COc1cccc2c1[n+]([O-])c1cc(Cl)c(Cl)cc1[n+]2[O-]` [Example 6c, 7,8-dichloro-1-(2-ethoxy-2-oxoethoxy)phenazine 5,10-dioxide], the Permeability result in data set [1] is “Intermediate/high”. The same compound registered a LogPeff in data set [1] of −5.42. Also, the EC50 in the data set with hepG2 (hepG2, 24 hours of incubation) worked out at 12 µM; in data set [2] (setting [7]), 4.7 ± 0.09 µM; in data set [2] (setting [8]) it was 3.1 ± 0.02 µM; in data set [3] (setting [9]) it was 0.38 ± 0.04 µM; in data set [3] (setting [10]) it was 0.41 ± 0.05 µM; in data set [4] (setting [11]), 1.3 ± 0.2 µM.

With `CN1CCN(C(=O)Oc2cccc3c2[n+]([O-])c2cccc(O)c2[n+]3[O-])CC1` [Example 8a, 1-hydroxy-6-((4-methylpiperazine-1-carbonyl)oxy)phenazine 5,10-dioxide], the EC50 with hepG2 (HepG2, 24 h) is 30 µM; in data set [2] (setting [12]), 59 ± 1.1 µM; in data set [2] (setting [13]), 53 ± 2 µM; in data set [3] (setting [14]) it was 1.4 ± 0.06 µM; in data set [3] (setting [15]) it was 1.5 ± 0.16 µM; in data set [4] (setting [16]), 100 ± 13 µM.

In turn, `COc1cccc2c1[n+]([O-])c1cccc(OC(=O)N3CCN(C)CC3)c1[n+]2[O-]` [Example 8b, 1-methoxy-6-((4-methylpiperazine-1-carbonyl)oxy)phenazine 5,10-dioxide] registered a LogPeff in data set [1] of −5.77. The concentration giving a half-maximal response (EC50) in the data set on hepG2 (HepG2, 24 h) amounted to 90 µM; in data set [2] (setting [12]) it was 39 ± 4.2 µM; in data set [2] (setting [13]), 26 ± 2.1 µM; in data set [3] (setting [14]), 0.98 ± 0.08 µM; in data set [3] (setting [15]), 1 ± 0.06 µM; in data set [4] (setting [16]) it was 26 ± 0.9 µM.

In the case of `Cc1cc2c(cc1C)[n+]([O-])c1c(OC(=O)N3CCN(C)CC3)cccc1[n+]2[O-]` [Example 8d, 7,8-dimethyl-1-((4-methylpiperazine-1-carbonyl)oxy)phenazine 5,10-dioxide], the concentration for a half-maximal effect (EC50) was 105 µM in the data set with hepG2 (HepG2, 24 h); 13 ± 0.7 µM in data set [2] (setting [12]); 11 ± 1.5 µM in data set [2] (setting [13]); 0.54 ± 0.06 µM in data set [3] (setting [14]); 0.63 ± 0.05 µM in data set [3] (setting [15]); 9.4 ± 0.55 µM in data set [4] (setting [16]).

On to `CN1CCN(C(=O)Oc2cccc3c2[n+]([O-])c2cc4ccccc4cc2[n+]3[O-])CC1` [Example 8e, 1-((4-methylpiperazine-1-carbonyl)oxy)benzo[b]phenazine 5,12-dioxide], for which, in data set [1], the Permeability entry is “Intermediate/high”. This compound also came in with a LogPeff in data set [1] of −5.38. The EC50 worked out at 45 µM in the data set on hepG2 (HepG2, 24 h); 15 ± 1.8 µM in data set [2] (setting [17]); 10 ± 0.9 µM in data set [2] (setting [18]); 0.32 ± 0.06 µM in data set [3] (Homo sapiens, MOLM-13, 24 h, read-out: EC50 (μM) MOLM-13 2% O2); 0.34 ± 0.04 µM in data set [3] (Homo sapiens, MOLM-13, 24 h, read-out: EC50 (μM) MOLM-13 19% O2); 3.2 ± 0.1 µM in data set [4] (Rattus norvegicus, H9c2, 24 h).

As for `CC(C)(C)C(=O)Oc1cccc2c1[n+]([O-])c1cccc(OC(=O)C(C)(C)C)c1[n+]2[O-]` [Example 16d, 1,6-bis(pivaloyloxy)phenazine 5,10-dioxide], the LogPeff in data set [1] is recorded as −5.86*. For the same compound, the IC50 was 5.59 µM with Molm13 cells (setting [5]) and 4.05 µM in the data set with Molm13 cells (setting [6]). Further, the concentration for a half-maximal effect (EC50) in data set [3] (setting [9]) is 8.9 ± 1.71 µM; in data set [3] (setting [10]), 11 ± 0.7 µM; in data set [4] (setting [11]), over 50 µM.

As to `CN1CCN(C(=O)Oc2cccc3c2[n+]([O-])c2cc(Br)c(Br)cc2[n+]3[O-])CC1` [Example 59, 7,8-dibromo-1-((4-methylpiperazine-1-carbonyl)oxy)phenazine 5,10-dioxide], the EC50 was determined as 40 µM in the data set with hepG2 (HepG2, 24 h); 7.6 ± 0.6 µM in data set [2] (setting [17]); 6.2 ± 0.02 µM in data set [2] (setting [18]); 0.23 ± 0.03 µM in data set [3] (setting [14]); 0.41 ± 0.04 µM in data set [3] (setting [15]); 2.2 ± 0.53 µM in data set [4] (setting [16]).
